Assays:
human TTK = target: T1, human TTK (Homo sapiens, UniProt P33981); assay: TTK inhibition assay (indirect ELISA); assay type: biochemical; conditions: read-out: TTK IC50 Range
T1 construct: amino terminal GST fusion of full length human TTK; purchased Invitrogen
T1 sequence (P33981 1-857): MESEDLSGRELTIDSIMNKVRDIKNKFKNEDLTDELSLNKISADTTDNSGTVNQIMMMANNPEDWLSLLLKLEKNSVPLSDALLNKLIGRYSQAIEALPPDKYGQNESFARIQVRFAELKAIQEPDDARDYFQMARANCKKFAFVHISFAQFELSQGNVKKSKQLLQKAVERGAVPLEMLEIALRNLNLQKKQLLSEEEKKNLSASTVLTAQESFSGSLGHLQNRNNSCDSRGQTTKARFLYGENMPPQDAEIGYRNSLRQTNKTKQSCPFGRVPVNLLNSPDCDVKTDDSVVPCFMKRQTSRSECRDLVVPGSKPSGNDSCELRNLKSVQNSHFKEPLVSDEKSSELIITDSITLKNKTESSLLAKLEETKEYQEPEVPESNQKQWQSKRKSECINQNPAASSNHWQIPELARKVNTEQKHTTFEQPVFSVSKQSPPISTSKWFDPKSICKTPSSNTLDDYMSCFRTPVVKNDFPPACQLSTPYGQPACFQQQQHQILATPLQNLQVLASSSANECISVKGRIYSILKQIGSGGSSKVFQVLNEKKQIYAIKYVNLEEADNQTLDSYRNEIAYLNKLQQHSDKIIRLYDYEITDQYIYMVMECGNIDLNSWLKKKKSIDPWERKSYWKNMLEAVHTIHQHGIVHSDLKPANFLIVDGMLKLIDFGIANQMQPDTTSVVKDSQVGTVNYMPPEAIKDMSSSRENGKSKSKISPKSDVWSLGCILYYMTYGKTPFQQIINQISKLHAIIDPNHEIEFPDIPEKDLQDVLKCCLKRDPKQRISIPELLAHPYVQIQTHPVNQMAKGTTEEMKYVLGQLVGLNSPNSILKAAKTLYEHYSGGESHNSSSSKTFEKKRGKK

Breast cancer cells = assay: Cancer cell line growth inhibition (SRB assay); assay type: cell-based; conditions: Homo sapiens; MDA-MB-468; read-out: Cancer Cell Line GI50 Range MDA-MB-468
[1] = tested on: colon cancer cells (HCT116); assay: Cancer cell line growth inhibition (SRB assay); assay type: cell-based; conditions: Homo sapiens, HCT-116; read-out: Cancer Cell Line GI50 Range HCT116
[2] = tested on: ovarian cancer cells (PA-1); assay: Cancer cell line growth inhibition (SRB assay); assay type: cell-based; conditions: Homo sapiens, PA-1; read-out: Cancer Cell Line GI50 Range PA-1
human PLK4 = target: T2, human PLK4 (Homo sapiens, UniProt O00444); assay: PLK4 inhibition assay (indirect ELISA); assay type: biochemical; conditions: 15 μM ATP
T2 construct: amino terminal GST fusion of residues 1-391 of human PLK4; made in house; host or cells: E. coli
T2 sequence (O00444 1-391): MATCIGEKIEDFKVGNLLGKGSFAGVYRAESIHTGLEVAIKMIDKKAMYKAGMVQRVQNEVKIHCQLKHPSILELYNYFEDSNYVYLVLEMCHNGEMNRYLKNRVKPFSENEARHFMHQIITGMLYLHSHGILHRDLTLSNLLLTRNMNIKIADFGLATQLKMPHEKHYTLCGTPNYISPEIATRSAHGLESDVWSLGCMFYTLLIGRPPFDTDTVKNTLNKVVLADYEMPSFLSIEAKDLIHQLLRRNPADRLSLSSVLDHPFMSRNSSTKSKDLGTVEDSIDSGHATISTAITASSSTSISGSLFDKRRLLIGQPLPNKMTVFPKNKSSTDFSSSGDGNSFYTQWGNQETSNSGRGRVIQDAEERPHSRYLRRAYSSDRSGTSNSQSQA
Method: Active PLK4 was purified from an E. coli expression system as an amino terminal GST fusion of residues 1-391 of human PLK4. The protein was purified from clarified cell extracts after induction at 15° C. overnight using glutathione sepharose, gel permeation chromatography, and ion exchange (Resource Q). The resulting protein was dephosphorylated with lambda phosphatase (NEB cat# P0753), and resolved from the phosphatase using gluthione sepharose. The dephosphorylated GST-PLK4 was stored in aliquots at −80° C. until use.
PLK4 activity was measured using an indirect ELISA detection system. Dephosphorylated GST-PLK4 (4 nM) was incubated in the presence of 15 μM ATP (Sigma cat# A7699), 50 mM HEPES-[…] pH 7.4, 10 mM MgCl2, 0.01% Brij 35 (Sigma cat# 03-3170), in a 96 well microtitre plate pre-coated with MBP (Millipore cat#30-011). The reaction was allowed to proceed for 30 minutes, followed by 5 washes of the plate with Wash Buffer (50 mM TRIS-Cl pH 7.4 and 0.2% Tween 20), and incubation for 30 minutes with a 1:3000 dilution of primary antibody (Cell Signaling cat# 9381). The plate was washed 5 times with Wash Buffer, incubated for 30 minutes in the presence of secondary antibody coupled to horse radish peroxidase (BioRad cat# 1721019, 1:3000 concentration), washed an additional 5 times with Wash Buffer, and incubated in the presence of TMB substrate (Sigma cat# T0440). The colourimetric reaction was allowed to continue for 5 minutes, followed by addition of stop solution (0.5 N sulphuric acid), and quantified by detection at 450 nm with either a monochromatic or filter based plate reader (Molecular Devices M5 or Beckman DTX880, respectively).
Compound inhibition was determined at either a fixed concentration (10 μM) or at a variable inhibitor concentration (typically 50 μM to 0.1 μM in a 10 point dose response titration). Compounds were pre-incubated in the presence of enzyme for 15 minutes prior to addition of ATP and the activity remaining quantified using the above described activity assay. The % Inhibition of a compound was determined using the following formula: % Inhibition=100×(1−(experimental value−background value)/(high activity control−background value)). The IC50 value was determined using a non-linear 4 point logistic curve fit (XLfit4, IDBS) with the formula: (A+(B/(1+((x/C)^D)))), where A=background value, B=range, C=inflection point, D=curve fit parameter.

Structure (SMILES) | IC50 (human TTK) | GI50 (Breast cancer cells) | GI50 [1] | GI50 [2] | IC50 (human PLK4)
CN1[C@@H]2CC[C@H]1C[C@@H](Oc1ccc(-c3n[nH]c4ccc(C(=O)NC(c5ccccc5Cl)C5CC5)cc34)cc1)C2 (stereo partly drawn) [Example A280, N-((2-chlorophenyl)(cyclopropyl)methyl)-3-(4-(((1R,3R,5S)-8-methyl-8-azabicyclo[3.2.1]octan-3-yl)oxy)phenyl)-H-indazole-5-carboxamide] | < 100 nM | 100 to 500 nM | < 100 nM | < 100 nM | < 50 nM
CN1[C@@H]2CC[C@H]1C[C@@H](Oc1ccc(-c3n[nH]c4ccc(C(=O)NC(c5ccccc5F)C5CC5)cc34)cc1)C2 (stereo partly drawn) [Example A282, N-(cyclopropyl(2-fluorophenyl)methyl)-3-(4-(((1R,3R,5S)-8-methyl-8-azabicyclo[3.2.1]octan-3-yl)oxy)phenyl)-1H-indazole-5-carboxamide] | < 100 nM | 100 to 500 nM | < 100 nM | < 100 nM | < 50 nM
CC(C)C(NC(=O)c1ccc2[nH]nc(-c3ccc(O[C@H]4C[C@H]5CC[C@@H](C4)N5C)cc3)c2c1)c1ccccc1 (stereo partly drawn) [Example A285, N-(2-methyl-1-phenylpropyl)-3-(4-(((1R,3R,5S)-8-methyl-8-azabicyclo[3.2.1]octan-3-yl)oxy)phenyl)-1H-indazole-5-carboxamide] | < 100 nM | 100 to 500 nM | < 100 nM | < 100 nM | < 50 nM
O=C(NC(c1ccccc1Cl)C1CCC1)c1ccc2[nH]nc(-c3ccc(N4CCN(C5COC5)CC4)cc3)c2c1 (stereo not shown) [Example A297, N-((2-chlorophenyl)(cyclobutyl)methyl)-3-(4-(4-(oxetan-3-yl)piperazin-1-yl)phenyl)-1H-indazole-5-carboxamide] | < 100 nM | < 100 nM | < 100 nM | < 100 nM | < 50 nM
C=CCCC(NC(=O)c1ccc2[nH]nc(-c3ccc(N4CCN(C5COC5)CC4)cc3)c2c1)c1ccccc1Cl (stereo not shown) [Example A302, N-(1-(2-chlorophenyl)pent-4-en-1-yl)-3-(4-(4-(oxetan-3-yl)piperazin-1-yl)phenyl)-1H-indazole-5-carboxamide] | < 100 nM | 100 to 500 nM | < 100 nM | < 100 nM | < 50 nM
CCC(CC)C(NC(=O)c1ccc2[nH]nc(-c3ccc(O[C@H]4C[C@H]5CC[C@@H](C4)N5C=O)cc3)c2c1)c1ccccn1 (stereo partly drawn) [Example A342, N-(2-ethyl-1-(pyridin-2-yl)butyl)-3-(4-(((1R,3R,5S)-8-formyl-8-azabicyclo[3.2.1]octan-3-yl)oxy)phenyl)-1H-indazole-5-carboxamide] | < 100 nM | < 100 nM | < 100 nM | < 100 nM | < 50 nM
CC(C)CC(NC(=O)c1ccc2[nH]nc(-c3ccc(OC4CCN(C5COC5)CC4)cc3)c2c1)c1ccccc1Cl (stereo not shown) [Example A355, N-(1-(2-chlorophenyl)-3-methylbutyl)-3-(4-((1-(oxetan-3-yl)piperidin-4-yl)oxy)phenyl)-1H-indazole-5-carboxamide] | < 100 nM | 100 to 500 nM | 100 to 500 nM | 100 to 500 nM | < 50 nM
CC(C)CC(NC(=O)c1ccc2[nH]nc(-c3ccc(OC4CN(C5COC5)C4)cc3)c2c1)c1ccccc1Cl (stereo not shown) [Example A357, N-(1-(2-chlorophenyl)-3-methylbutyl)-3-(4-((1-(oxetan-3-yl)azetidin-3-yl)oxy)phenyl)-1H-indazole-5-carboxamide] | < 100 nM | 100 to 500 nM | 100 to 500 nM | 100 to 500 nM | < 50 nM
CC(C)C[C@H](NC(=O)c1ccc2[nH]nc(-c3ccc(N4CCN(C5COC5)CC4)cc3)c2c1)c1ccccn1 [Example A359, (S)-N-(3-methyl-1-(pyridin-2-yl)butyl)-3-(4-(4-(oxetan-3-yl)piperazin-1-yl)phenyl)-1H-indazole-5-carboxamide] | < 100 nM | < 100 nM | < 100 nM | < 100 nM | < 50 nM
CC(C)(C)C[C@H](NC(=O)c1ccc2[nH]nc(-c3ccc(N4CCN(C5COC5)CC4)cc3)c2c1)c1ccccc1 [Example A372, (S)-N-(3,3-dimethyl-1-phenylbutyl)-3-(4-(4-(oxctan-3-yl)piperazin-1-yl)phenyl)-1H-indazole-5-carboxamide] | < 100 nM | 100 to 500 nM | < 100 nM | < 100 nM | < 50 nM
CC(C)CC(NC(=O)c1ccc2[nH]nc(-c3ccc(OC4CC5CCC(C4)N5C4COC4)cc3)c2c1)c1ccccn1 [Example A373, N-(3-methyl-1-(pyridin-2-yl)butyl)-3-(4-(((1R,3R,5S)-8-(oxetan-3-yl)-8-azabicyclo[3.2.1]octan-3-yl)oxy)phenyl)-1H-indazole-5-carboxamide] | < 100 nM | 100 to 500 nM | 100 to 500 nM | 100 to 500 nM | < 50 nM
CN1C2COCC1CC(Oc1ccc(-c3n[nH]c4ccc(C(=O)NC(c5ccccc5)C5CC5)cc34)cc1)C2 [Example A387, N-(cyclopropyl(phenyl)methyl)-3-(4-(((1R,5S,7s)-9-methyl-3-oxa-9-azabicyclo[3.3.1]nonan-7-yl)oxy)phenyl)-1H-indazole-5-carboxamide] | < 100 nM | > 500 nM | < 100 nM | < 100 nM | < 50 nM
CN1[C@@H]2CCC[C@H]1C[C@@H](Oc1ccc(-c3n[nH]c4ccc(C(=O)NC(c5ccccc5)C5CC5)cc34)cc1)C2 (stereo partly drawn) [Example A390, N-(cyclopropyl (phenyl)methyl)-3-(4-(((1R,3R,5S)-9-methyl-9-azabicyclo[3.3.1]nonan-3-yl)oxy)phenyl)-1 H-indazole-5-carboxamide] | < 100 nM | 100 to 500 nM | < 100 nM | < 100 nM | < 50 nM
O=C(N[C@H](CCO)c1ccccc1)c1ccc2[nH]nc(-c3ccc(N4[C@@H]5CC[C@H]4COC5)cc3)c2c1 [Example A423, 3-(4-((1R,5S)-3-oxa-8-azabicyclo[3.2.1]octan-8-yl)phenyl)-N-((R)-3-hydroxy-1-phenylpropyl)-1H-indazole-5-carboxamide] | < 100 nM | < 100 nM | < 100 nM | < 100 nM | < 50 nM
